Tests used:
[1] = Storage stability of DHLA-NO solution (color / absorbance at OD 545 nm); format: physicochemical
Method: Furthermore, it was also observed that other reduced thiols (cysteine, glutathione), which were used as controls, generated similar S-nitroso thiol compounds. NO generated from the decomposition of other NO donors also generated nitroso-DHLA when incubated with DHLA. […] However, DHLA-NO stored at −80° C. retained its color up for up to 3 months without any loss of absorbance at OD 545 nm.

[2] = tested on: bovine serum albumin (BSA); experiment: Nitration of bovine serum albumin by NO-DHLA, western blot with anti-nitrotyrosine antibodies (NO donation); format: biochemical; conditions: BSA 25 mg/ml incubated with NO-DHLA (6 to 15 μl) for 1 hr; untreated albumin had no detectable nitrotyrosine
Method: To determine the ability of the dinitroso-derivative of DHLA (6,8-bis[(oxidoazanylidyne)-λ^4-sulfanyl]octanoic acid or “NO-DHLA”) to donate nitric oxide (NO), bovine serum albumin (BSA) was first prepared in water at 25 mg/ml. In 100 μl of alcohol, increasing concentrations of BSA (15 to 30 μl) were then mixed with increasing concentrations of the NO-DHLA (0 to 15 μl) and incubated for 1 hr. Table 1 represents the incubation:
At the end of the incubation, samples were the separated by SDS-PAGE electrophoresis with along with markers of molecular weight. At the end of the electrophoresis, the blot was subsequently transferred on to a nitrocellulose membrane and western blotting was performed using anti-nitrotyrosine antibodies at a 1:1000 dilution (Oxford Biomedical Research, Rochester Hills, Mich.). Non-specific sites on the nitrocellulose were blocked with milk protein for 16 h at 4° C. and then overlaid with a polyclonal anti-nitrotyrosine rabbit antibody. Peroxidase conjugated anti-rabbit IgG was used as secondary antibody. […]

[3] = tested on: low-density lipoprotein (LDL); experiment: Inhibition of low-density lipoprotein oxidation, spectral analysis at O.D. 234; format: biochemical; conditions: 10, 25, and 50 μM NO-DHLA in ethyl alcohol
Method: To determine whether the dinitroso-derivative of dihydrolipoic acid (6,8-bis[(oxidoazanylidyne)-λ^4-sulfanyl]octanoic acid or “NO-DHLA”) was capable of inhibiting low-density lipoprotein (LDL) oxidation, LDLs were incubated in ethyl alcohol alone or with NO-DHLA. A spectral analysis of these solutions was then performed at an O.D. of 234, as absorbance at that portion of the spectrum is indicative of the formation of the oxidized fatty acid component of LDL.

Structure (SMILES): O=NSCCC(CCCCC(=O)O)SN=O (centres unmarked) [NO-DHLA, 6,8-bis[(oxidoazanylidyne)-λ^4-sulfanyl]octanoic acid]
- stability of solution stored at room temperature ([1]; solution stored at room temperature, color): decomposed, losing color within hours
- stability without any loss of absorbance at OD 545 nm ([1]; stored at −20° C.): stable at −20 °C for at least one month
- time color retained without any loss of absorbance at OD 545 nm ([1]; stored at −80° C.): up to 3 months
- nitrotyrosine formation on BSA (reactivity with anti-nitrotyrosine antibody) [2]: intense reactivity with the antibody
- oxidation of LDL (O.D. at 234 over time) [3]: effectively prevented or significantly reduced the oxidation of LDL
